1 compound from US8524686B2, “Composition for prevention or treatment of eye diseases” (Benebiosis Co., Ltd., priority 2008, dated 2013) can be followed below.

In one assay the test system is IL-1β. As to the kind of experiment: RT-PCR of IL-1β RNA transcripts in corneal epithelial cells of EDE mice. In kind it is in vivo, murine. Here is the method:
(§1) 6 to 8 weeks old C57BL/6 mice (Central Lab Animal, Seoul, Korea) were used for mouse model for dry eye syndrome. All animals were treated according to the ARVO Statement for the Use of Animals in Ophthalmic and Vision Research. Experimental dry eye (EDE) was induced by subcutaneous injection of 0.5 mg/0.2 mL scopolamine hydrobromide (Sigma-Aldrich, St. Louis, Mo.) in alternating hindquarters administered four times a day (9 AM, […], 3 PM and 6 PM) and by exposure to air and ≦40% ambient humidity for 18 hours per day, as previously reported (23). Four experimental groups were evaluated: untreated group (UT), EDE group (control), EDE+sialyllactose (1 mg/kg) group and EDE+sialyllactose (5 mg/kg) group.
(§2) Corneal and conjunctival epithelial cells acquired from six eyes per each test group. Total RNA was isolated using Trizol reagent (JBI Co., Korea) and kept at −80° C. until use. cDNA was synthesized by reverse transcriptase with an oligo dT-adaptor primer from an RNA PCR kit (Bioneer, Korea) according to the manufacturer's recommended protocol. […] In RT-PCR assay, utilization of the same quantity of mRNA was confirmed by analyzing expression level of mGAPDH. […]
(§3) The level of RNA transcripts encoding MMP-9, IL-1β, TNF-α and the housekeeping gene GAPDH were evaluated by RT-PCR using the total RNA of the corneal epithelial cells obtained from each group (UT, EDE and EDE+sialyllactose). […]

The test system of another assay is FAK. The experiment in a line: Immunofluorescence microscopy of anti-FAK stained focal adhesions in VEGF-stimulated HREC. The assay is classed as cell-based, human. As to conditions: HREC stimulated with 50 ng/mL VEGF, FIG. 6 C. As for the experimental part:
(§4) Human retinal endothelial cells (HREC) were acquired from Sciencell (USA). The cells were cultured in sterilized endothelial cell medium (ECM, Sciencell, USA), and kept in a humidified 5% CO2 incubator at 37° C. Passages 4 to 6 of the HREC were used for testing.
(§5) HREC were inoculated onto 12 mm n-sterilized, gelatin-coated coverslip of 6-well tissue culture plate. In the presence or absence of sialyllactose, HREC were immobilized with 3.7% formalin with or without treatment with VEGF. Then, the cells were passed through […] Triton X-100 in PBS and washed three times with PBS. Non-specific sites were blocked with PBS-containing 1% bovine serum albumin, while gently shaking at ambient temperature for 30 minutes. After immersing the cells in a solution of FAK, paxillin, vincullin and VE-cadherin antibodies, the cells were incubated overnight at 4° C. After washing with PBS, the cells were further reacted with Alexa Flour 594-conjugate goat anti-mouse IgG (Molecular Probes, USA) and Alexa Flour 488-conjugate goat anti-rabbit IgG (Molecular Probes, USA) at ambient temperature for 1 hour. After washing with PBS, analysis was carried out by fluorescence microscopy. Primary antibodies previously bound to antigens or secondary antibodies were used as negative control. […]

For assay [1], the system named is experimental dry eye (EDE) mice. The experiment in a line: Measurement of tear production with cotton thread in mouse model of dry eye. The assay is classed as in vivo, C57BL/6 mice. The note with it: for Tear production (thread's wet length): n = 6, cotton thread 60 seconds. As for the experimental part:
as §1
Tear production was measured with cotton thread (Zone-quick; Oasis). The thread was held with jeweler forceps and applied to the ocular surface in the lateral canthus for 60 seconds. Wetting of the thread was measured in millimeters, using the scale on the cotton thread.
Tear production at the ocular surface in the lateral canthus from the UT, EDE and two treatment groups (6 eyes/group/experiment, in four different sets of experiments) was measured with cotton thread.

The subject of the next assay is VE-cadherin. The experiment in a line: Immunofluorescence microscopy of VEGF-induced intercellular adhesion (VE-cadherin staining) in HREC. The assay is classed as cell-based, human. As to conditions: VEGF-stimulated HREC, one hour after VEGF stimulation, FIG. 7 C. Here is the method: as §4, §5
A further assay concerns murine MMP-9. As to the kind of experiment: SDS-PAGE gelatin zymography of corneal and conjunctival epithelial cells of EDE mice. In kind it is in vivo. As to conditions: FIG. 3. As for the experimental part:
as §1
In order to determine the relative concentration of gelatinases in corneal and conjunctival epithelial cells, SDS-PAGE gelatin zymography was performed by using a previously reported method (24). Tissue was homogenized in a sample buffer containing 50 mM Tris-HCl (pH 8.0), 150 mM NaCl, 0.02% NaN3, […] phenylmethylsulfonyl fluoride (PMSF) and 1% Triton X-100. […]
Gelatinolytic activity (105 kDa gelatinolytic band corresponds to murine MMP-9) was evaluated in corneal and conjunctival epithelial cells acquired from the UT, EDE and two treatment groups.

A further assay concerns paxillin. The experiment in a line: Immunofluorescence microscopy of anti-paxillin stained focal adhesions in VEGF-stimulated HREC. In kind it is cell-based, human. As to conditions: HREC stimulated with 50 ng/mL VEGF, FIG. 6 G. Here is the method: as §4, §5
For a further assay, the system named is TNF-α. As to the kind of experiment: RT-PCR of TNF-α RNA transcripts in corneal epithelial cells of EDE mice. In kind it is in vivo, murine. As for the experimental part:
as §1, §2, §3

Another assay relates to MMP-9. The experiment in a line: RT-PCR of MMP-9 RNA transcripts in corneal epithelial cells of EDE mice. In kind it is in vivo, murine. Here is the method:
as §1, §2, §3

For another assay, the target named is T1, VEGFR-2 (Homo sapiens, UniProt P35968).
T1 construct: host or cells: human retinal endothelial cells (HREC), passages 4 to 6
The experiment in a line: Western blotting of VEGF-stimulated VEGFR-2 phosphorylation in HREC. The assay is classed as cell-based. As to conditions: endothelial cells (HREC), concentration-dependent, FIG. 4. As for the experimental part:
as §4
(§6) HREC were homogenized in a buffer containing 50 mM Tris-HCl (pH 8.0), 150 mM NaCl, 0.02% NaN3, 100 μg/mL PMSF, 1 μg/mL aprotinin and 1% Triton X-100. Protein concentration was measured using a Bio-Rad protein assay (Bio-Rad, USA). Thirty (30) μg of the total cell lysate sample was separated by SDS-PAGE based on size, and subjected to electrophoretic migration toward a nitrocellulose membrane using a Hoefer electrophoresis system (Amersham Biosciences, UK). For detection of target protein, the membrane was reacted with p-AKT, ERK, p-ERK, VEGFR-2 (flk-1, Q-20), VE-cadherin, FAK, paxillin, vincullin (SantaCruz Biotechnology, USA) and p-VEGFR-2 (Cell Signaling Tech., USA) antibodies. Detection was carried out using secondary horseradish peroxidase-bound anti-rabbit IgG antibody, anti-goat IgG antibody and anti-mouse IgG antibody (SantaCruz Biotechnology, USA), and using ECL chemiluminescence system (Amersham Biosciences, UK).
(§7) VEGF-mediated VEGFR-2 activation plays an important role in tumor angiogenesis via the activation of VEGFR-2 downstream signal pathways in endothelial cells (25). […]
Background: Immunoblotting shows a protein as a band on a membrane.

The subject of the next assay is AKT. The experiment in a line: Western blotting of VEGF-induced AKT activation in HREC. The assay is classed as cell-based, human. As to conditions: FIG. 4. As for the experimental part:
as §4, §6, §7

The subject of assay [2] is human retinal endothelial cells (HREC). As to the kind of experiment: Tube formation assay on Matrigel, VEGF-stimulated HREC. In kind it is cell-based. The note with it: 24 hours, concentration-dependent, FIG. 5. Here is the method:
as §4
Sialyllactose's inhibition effect against HREC's capillary-like network induced by VEGF was investigated using Matrigel-coated 24-well culture plate. Matrigel (13.9 mg/mL) was melted overnight at 4° C. and mixed with ECM medium at a ratio of 1:1. After adding 70 μL of Matrigel (6.95 mg/mL) diluted with ECM to each well of the 24-well culture plate, polymerization was performed for 1 hour at 37° C. For evaluation of tube formation, HREC were detached from the tissue culture plate, washed, resuspended in ECM medium containing 1% FBS (1×10^4 cells/well), and added to the Matrigel-coated well in the presence or absence of VEGF along with sialyllactose at various concentrations. The plate was incubated in a 5% CO2 incubator for 24 hours at 37° C., and capillary-like tube formed in each well of the plate was photographed using a Nikon optical microscope.
The VEGF-mediated VEGFR-2 activation is closely associated with the angiogenic action of endothelial cells such as proliferation, migration, survival and tube formation (25). […]

The mark [3] stands for this setting: corneal epithelial cells, EDE group treated with sialyllactose, FIG. 2.

T1 sequence (P35968 20-1356): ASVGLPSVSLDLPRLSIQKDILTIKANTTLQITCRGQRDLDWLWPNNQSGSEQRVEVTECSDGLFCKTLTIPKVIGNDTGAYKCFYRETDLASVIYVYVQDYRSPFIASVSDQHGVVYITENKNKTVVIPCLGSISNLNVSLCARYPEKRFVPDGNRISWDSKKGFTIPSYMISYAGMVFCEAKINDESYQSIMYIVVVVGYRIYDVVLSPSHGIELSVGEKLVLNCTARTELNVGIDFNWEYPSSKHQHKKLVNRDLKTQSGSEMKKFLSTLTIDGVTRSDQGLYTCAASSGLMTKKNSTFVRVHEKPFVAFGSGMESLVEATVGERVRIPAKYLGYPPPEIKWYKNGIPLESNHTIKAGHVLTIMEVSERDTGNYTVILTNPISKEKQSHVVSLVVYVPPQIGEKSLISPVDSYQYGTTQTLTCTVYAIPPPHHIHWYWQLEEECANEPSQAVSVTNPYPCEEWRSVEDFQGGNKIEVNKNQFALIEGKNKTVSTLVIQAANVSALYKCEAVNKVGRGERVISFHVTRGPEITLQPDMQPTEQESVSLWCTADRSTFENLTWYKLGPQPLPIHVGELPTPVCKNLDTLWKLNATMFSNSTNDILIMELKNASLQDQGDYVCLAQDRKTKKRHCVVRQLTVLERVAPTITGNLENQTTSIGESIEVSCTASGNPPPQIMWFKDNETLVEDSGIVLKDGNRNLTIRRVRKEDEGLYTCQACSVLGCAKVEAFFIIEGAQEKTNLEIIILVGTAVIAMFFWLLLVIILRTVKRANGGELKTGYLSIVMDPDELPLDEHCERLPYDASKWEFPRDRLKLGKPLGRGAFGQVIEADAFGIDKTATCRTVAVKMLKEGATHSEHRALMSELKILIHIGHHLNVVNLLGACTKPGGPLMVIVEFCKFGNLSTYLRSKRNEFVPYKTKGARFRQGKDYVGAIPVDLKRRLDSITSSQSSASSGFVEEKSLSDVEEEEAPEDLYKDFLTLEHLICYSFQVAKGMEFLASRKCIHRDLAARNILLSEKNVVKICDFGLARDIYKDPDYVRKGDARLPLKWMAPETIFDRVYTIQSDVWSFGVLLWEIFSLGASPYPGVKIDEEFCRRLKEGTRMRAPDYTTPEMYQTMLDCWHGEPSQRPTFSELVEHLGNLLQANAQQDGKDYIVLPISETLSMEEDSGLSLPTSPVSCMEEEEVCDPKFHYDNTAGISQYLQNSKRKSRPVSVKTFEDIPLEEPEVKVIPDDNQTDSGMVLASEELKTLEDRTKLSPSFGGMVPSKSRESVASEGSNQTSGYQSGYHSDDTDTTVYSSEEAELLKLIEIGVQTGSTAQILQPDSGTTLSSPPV

With `CC(=O)N[C@H]1[C@H]([C@H](O)[C@H](O)CO)O[C@@](O[C@H]2[C@@H](O)[C@@H](CO)O[C@@H](O[C@H]3[C@H](O)[C@@H](O)C(O)O[C@@H]3CO)[C@@H]2O)(C(=O)O)C[C@@H]1O` (stereo partly drawn) [sialyllactose, Neu5Ac α-2,3-D-Gal β-1,4-D-Glc], the “Decrease in expression of IL-1β gene, 5 mg/kg compared with 1 mg/kg group” value in the assay with IL-1β (EDE + sialyllactose 5 mg/kg) is given as “larger decrease”. In addition, the “Level of IL-1β transcripts” value in the assay on IL-1β (setting [3]) was “decreased”. Moreover, in the assay with FAK, the “Focal adhesions immunostained with anti-FAK” value is recorded as “markedly inhibited”. The “Tear production versus EDE group” value in assay [1] (EDE + sialyllactose test groups (1 and 5 mg/kg)) is “statistically significant increased tear production”. In addition, the “Tear production (thread's wet length)” value in [1] (EDE mice + sialyllactose 1 mg/kg) amounted to 1.55 ± 0.48 mm; in assay [1] (EDE mice + sialyllactose 5 mg/kg), 1.45 ± 0.34 mm. Moreover, the “Sharp and continuous intercellular contact areas (VE-cadherin staining)” value in the assay with VE-cadherin is given as “recovered”. Further, the “Gelatinolytic activity (105 kDa band, MMP-9)” value with murine MMP-9 (EDE + sialyllactose 1 mg/kg) and in the assay on murine MMP-9 (EDE + sialyllactose 5 mg/kg) was “decreased gelatinolytic activity” throughout. Further, in the assay with paxillin, the “Recruitment and increase of anti-paxillin immunostaining of focal adhesions” value is “certainly blocked”. The “Decrease in expression of TNF-α gene, 5 mg/kg compared with 1 mg/kg group” value in the assay with TNF-α (EDE + sialyllactose 5 mg/kg) was “larger decrease”. For the same compound, in the assay with TNF-α (setting [3]), the “Level of TNF-α transcripts” value is “decreased”. For the same compound, the “Decrease in expression of MMP-9 gene, 5 mg/kg compared with 1 mg/kg group” value in the assay with MMP-9 (EDE + sialyllactose 5 mg/kg) is reported as “larger decrease”. For the same compound, the “Level of MMP-9 transcripts” value in the assay with MMP-9 (setting [3]) is given as “decreased”. Moreover, the “VEGF-stimulated VEGFR-2 phosphorylation” value at VEGFR-2 is “strongly reduced”. In addition, in the assay with AKT, the “VEGF-induced AKT activation” value is listed as “markedly reduced”. Further, the “Width and length of the tube” value in [2] is recorded as “significantly reduced”.
